# Results as given in the kinase profiling compilation of Christmann-Franck et al. (2016).
# Tests used:
# Assay in all cases: KINOMEscan competition binding
# Details in all cases: compound 10.0 µM
# ERBB3 (human) = ERBB3 (human) (UniProt P21860)
# [1] = tested on: ABL1 (human), P00519 [E255K]
# PIK3CG (human) = PIK3CG (human) (UniProt P48736)
# ERN1 (human) = ERN1 (human) (UniProt O75460)
# GRK7 (human) = GRK7 (human) (UniProt Q8WTQ7)
# SGK3 (human) = SGK3 (human) (UniProt Q96BR1)
# EIF2AK1 (human) = EIF2AK1 (human) (UniProt Q9BQI3)
# Chain of EIF2AK1 (human) (Q9BQI3 whole entry, looked up): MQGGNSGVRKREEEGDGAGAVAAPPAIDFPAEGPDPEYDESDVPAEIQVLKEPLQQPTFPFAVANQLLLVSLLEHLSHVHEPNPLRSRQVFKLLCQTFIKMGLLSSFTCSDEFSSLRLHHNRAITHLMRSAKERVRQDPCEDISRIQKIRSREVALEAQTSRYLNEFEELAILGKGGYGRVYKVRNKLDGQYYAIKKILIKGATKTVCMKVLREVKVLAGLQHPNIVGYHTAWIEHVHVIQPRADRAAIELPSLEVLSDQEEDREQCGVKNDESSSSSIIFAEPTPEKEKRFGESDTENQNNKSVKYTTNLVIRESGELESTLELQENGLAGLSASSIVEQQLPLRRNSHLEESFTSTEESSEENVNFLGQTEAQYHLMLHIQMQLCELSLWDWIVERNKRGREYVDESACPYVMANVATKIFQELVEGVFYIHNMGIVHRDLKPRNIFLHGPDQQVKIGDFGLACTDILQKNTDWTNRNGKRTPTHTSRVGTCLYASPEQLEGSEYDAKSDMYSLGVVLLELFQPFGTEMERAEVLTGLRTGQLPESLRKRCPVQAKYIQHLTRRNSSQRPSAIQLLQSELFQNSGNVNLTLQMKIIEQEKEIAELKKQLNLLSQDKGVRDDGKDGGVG
# PI4KB (human) = PI4KB (human) (UniProt Q9UBF8)
# MAST1 (human) = MAST1 (human) (UniProt Q9Y2H9)
# CSNK1A1 (human) = CSNK1A1 (human) (UniProt P48729)
# MAP2K7 (human) = MAP2K7 (human) (UniProt O14733)
# HIPK4 (human) = HIPK4 (human) (UniProt Q8NE63)
# RPS6KB1 (human) = RPS6KB1 (human) (UniProt P23443)
# CRK2 (P.falciparum) = CRK2 (P.falciparum) (UniProt P61075)
# Chain of CRK2 (P.falciparum) (P61075 whole entry, looked up): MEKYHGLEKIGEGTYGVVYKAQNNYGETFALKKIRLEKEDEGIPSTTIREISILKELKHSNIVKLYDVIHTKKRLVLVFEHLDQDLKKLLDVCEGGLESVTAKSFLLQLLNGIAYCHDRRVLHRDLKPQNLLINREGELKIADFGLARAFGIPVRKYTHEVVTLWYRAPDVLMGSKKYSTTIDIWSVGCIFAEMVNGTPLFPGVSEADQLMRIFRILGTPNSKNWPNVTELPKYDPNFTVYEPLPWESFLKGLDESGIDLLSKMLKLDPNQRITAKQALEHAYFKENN
# BRAF (human) = BRAF (human) (UniProt P15056)
# OXSR1 (human) = OXSR1 (human) (UniProt O95747)
# Chain of OXSR1 (human) (O95747 whole entry, looked up): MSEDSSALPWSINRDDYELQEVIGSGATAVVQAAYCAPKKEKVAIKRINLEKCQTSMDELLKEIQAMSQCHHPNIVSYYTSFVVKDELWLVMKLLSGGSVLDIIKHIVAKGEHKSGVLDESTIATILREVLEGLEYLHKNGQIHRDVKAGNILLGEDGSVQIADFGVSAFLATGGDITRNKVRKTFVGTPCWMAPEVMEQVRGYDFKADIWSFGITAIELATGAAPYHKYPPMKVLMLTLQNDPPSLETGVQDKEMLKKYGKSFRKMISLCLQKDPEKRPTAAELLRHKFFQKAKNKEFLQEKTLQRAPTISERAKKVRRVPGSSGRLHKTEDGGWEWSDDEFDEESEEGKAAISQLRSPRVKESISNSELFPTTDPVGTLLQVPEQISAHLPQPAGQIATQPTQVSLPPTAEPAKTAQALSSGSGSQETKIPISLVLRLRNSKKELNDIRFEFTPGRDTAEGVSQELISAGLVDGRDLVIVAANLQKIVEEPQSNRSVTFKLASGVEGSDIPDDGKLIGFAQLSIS
# TBK1 (human) = TBK1 (human) (UniProt Q9UHD2)
# MAP3K15 (human) = MAP3K15 (human) (UniProt Q6ZN16)
# Chain of MAP3K15 (human) (Q6ZN16 whole entry, looked up): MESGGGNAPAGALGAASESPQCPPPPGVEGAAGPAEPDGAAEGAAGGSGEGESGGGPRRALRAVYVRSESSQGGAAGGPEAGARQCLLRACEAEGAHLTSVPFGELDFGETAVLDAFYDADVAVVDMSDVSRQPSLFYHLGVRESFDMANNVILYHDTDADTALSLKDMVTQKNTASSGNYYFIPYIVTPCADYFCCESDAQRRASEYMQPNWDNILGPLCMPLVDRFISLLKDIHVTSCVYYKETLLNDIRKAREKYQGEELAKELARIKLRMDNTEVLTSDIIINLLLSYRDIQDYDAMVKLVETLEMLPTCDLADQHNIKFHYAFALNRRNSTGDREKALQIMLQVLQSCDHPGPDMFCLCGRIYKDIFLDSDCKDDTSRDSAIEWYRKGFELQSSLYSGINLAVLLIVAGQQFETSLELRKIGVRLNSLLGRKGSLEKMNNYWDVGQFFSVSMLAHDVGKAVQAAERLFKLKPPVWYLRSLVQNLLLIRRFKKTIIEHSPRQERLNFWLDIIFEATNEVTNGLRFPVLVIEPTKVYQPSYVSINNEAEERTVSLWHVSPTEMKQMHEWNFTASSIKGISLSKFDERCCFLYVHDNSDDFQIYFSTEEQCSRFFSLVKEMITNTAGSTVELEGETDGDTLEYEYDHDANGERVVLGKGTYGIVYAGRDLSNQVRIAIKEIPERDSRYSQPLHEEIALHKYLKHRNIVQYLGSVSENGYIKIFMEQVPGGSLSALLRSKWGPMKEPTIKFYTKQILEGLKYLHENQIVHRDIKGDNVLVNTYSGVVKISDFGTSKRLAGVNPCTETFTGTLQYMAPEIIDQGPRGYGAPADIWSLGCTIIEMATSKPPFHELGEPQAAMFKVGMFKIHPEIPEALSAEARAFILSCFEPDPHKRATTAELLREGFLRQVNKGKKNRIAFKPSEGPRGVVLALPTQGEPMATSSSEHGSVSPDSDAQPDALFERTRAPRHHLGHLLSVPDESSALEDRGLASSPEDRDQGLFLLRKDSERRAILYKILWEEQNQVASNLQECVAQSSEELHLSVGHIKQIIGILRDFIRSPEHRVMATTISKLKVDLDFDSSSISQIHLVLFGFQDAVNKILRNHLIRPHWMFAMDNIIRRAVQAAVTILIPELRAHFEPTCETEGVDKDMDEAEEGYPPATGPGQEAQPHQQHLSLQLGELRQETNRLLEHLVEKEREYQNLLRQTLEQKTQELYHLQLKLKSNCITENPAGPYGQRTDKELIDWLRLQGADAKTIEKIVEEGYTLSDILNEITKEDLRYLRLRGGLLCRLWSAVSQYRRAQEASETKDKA
# EPHB6 (human) = EPHB6 (human) (UniProt O15197)
# MAP3K13 (human) = MAP3K13 (human) (UniProt O43283)
# Chain of MAP3K13 (human) (O43283 whole entry, looked up): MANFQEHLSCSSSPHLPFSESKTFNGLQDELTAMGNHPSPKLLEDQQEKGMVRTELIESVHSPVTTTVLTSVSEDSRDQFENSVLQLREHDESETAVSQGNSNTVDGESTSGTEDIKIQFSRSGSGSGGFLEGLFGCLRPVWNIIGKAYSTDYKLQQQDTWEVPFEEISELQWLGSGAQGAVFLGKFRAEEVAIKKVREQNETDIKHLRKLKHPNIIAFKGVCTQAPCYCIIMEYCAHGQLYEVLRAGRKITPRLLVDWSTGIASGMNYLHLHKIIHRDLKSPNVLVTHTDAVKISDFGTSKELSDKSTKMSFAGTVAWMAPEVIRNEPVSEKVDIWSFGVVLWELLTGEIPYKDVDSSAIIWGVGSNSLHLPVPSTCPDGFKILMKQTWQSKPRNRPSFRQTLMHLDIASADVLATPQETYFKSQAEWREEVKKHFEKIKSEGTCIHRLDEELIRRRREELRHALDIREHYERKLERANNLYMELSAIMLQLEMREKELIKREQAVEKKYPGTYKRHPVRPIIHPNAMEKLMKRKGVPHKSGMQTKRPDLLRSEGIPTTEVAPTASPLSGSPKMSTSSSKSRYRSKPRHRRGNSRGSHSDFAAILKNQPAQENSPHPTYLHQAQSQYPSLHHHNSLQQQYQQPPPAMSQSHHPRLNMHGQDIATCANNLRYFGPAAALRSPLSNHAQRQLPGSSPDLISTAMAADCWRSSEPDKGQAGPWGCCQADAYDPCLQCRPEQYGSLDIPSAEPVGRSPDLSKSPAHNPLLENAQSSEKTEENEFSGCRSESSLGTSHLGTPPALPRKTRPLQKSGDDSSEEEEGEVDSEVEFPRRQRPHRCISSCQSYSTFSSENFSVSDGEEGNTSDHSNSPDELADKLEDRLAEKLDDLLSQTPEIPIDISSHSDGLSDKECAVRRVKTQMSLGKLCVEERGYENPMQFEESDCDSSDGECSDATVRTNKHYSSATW
# DYRK2 (human) = DYRK2 (human) (UniProt Q92630)
# NEK11 (human) = NEK11 (human) (UniProt Q8NG66)
# MTOR (human) = MTOR (human) (UniProt P42345)
# MATK (human) = MATK (human) (UniProt P42679)
# SBK1 (human) = SBK1 (human) (UniProt Q52WX2)
# KIT (human) = KIT (human) (UniProt P10721)
# CDKL1 (human) = CDKL1 (human) (UniProt Q00532)
# ROCK1 (human) = ROCK1 (human) (UniProt Q13464)
# LRRK2 (human) = LRRK2 (human) (UniProt Q5S007)
# NEK3 (human) = NEK3 (human) (UniProt P51956)
# CDK2 (human) = CDK2 (human) (UniProt P24941)
# MAP3K2 (human) = MAP3K2 (human) (UniProt Q9Y2U5)
# [2] = tested on: PIK3CA (human), P42336 [I800L]
# HIPK3 (human) = HIPK3 (human) (UniProt Q9H422)
# [3] = tested on: PIK3CA (human), P42336 [E545K]
# [4] = tested on: EGFR (human), P00533 [P753S; 747-752 del]
# [5] = tested on: EGFR (human), P00533 [746-750 del]
# [6] = tested on: KIT (human), P10721 [V559D/T670I]
# [7] = tested on: FLT3 (human), P36888 [K663Q]
# TIE1 (human) = TIE1 (human) (UniProt P35590)
# Chain of PIK3CG (human) (P48736 whole entry, looked up): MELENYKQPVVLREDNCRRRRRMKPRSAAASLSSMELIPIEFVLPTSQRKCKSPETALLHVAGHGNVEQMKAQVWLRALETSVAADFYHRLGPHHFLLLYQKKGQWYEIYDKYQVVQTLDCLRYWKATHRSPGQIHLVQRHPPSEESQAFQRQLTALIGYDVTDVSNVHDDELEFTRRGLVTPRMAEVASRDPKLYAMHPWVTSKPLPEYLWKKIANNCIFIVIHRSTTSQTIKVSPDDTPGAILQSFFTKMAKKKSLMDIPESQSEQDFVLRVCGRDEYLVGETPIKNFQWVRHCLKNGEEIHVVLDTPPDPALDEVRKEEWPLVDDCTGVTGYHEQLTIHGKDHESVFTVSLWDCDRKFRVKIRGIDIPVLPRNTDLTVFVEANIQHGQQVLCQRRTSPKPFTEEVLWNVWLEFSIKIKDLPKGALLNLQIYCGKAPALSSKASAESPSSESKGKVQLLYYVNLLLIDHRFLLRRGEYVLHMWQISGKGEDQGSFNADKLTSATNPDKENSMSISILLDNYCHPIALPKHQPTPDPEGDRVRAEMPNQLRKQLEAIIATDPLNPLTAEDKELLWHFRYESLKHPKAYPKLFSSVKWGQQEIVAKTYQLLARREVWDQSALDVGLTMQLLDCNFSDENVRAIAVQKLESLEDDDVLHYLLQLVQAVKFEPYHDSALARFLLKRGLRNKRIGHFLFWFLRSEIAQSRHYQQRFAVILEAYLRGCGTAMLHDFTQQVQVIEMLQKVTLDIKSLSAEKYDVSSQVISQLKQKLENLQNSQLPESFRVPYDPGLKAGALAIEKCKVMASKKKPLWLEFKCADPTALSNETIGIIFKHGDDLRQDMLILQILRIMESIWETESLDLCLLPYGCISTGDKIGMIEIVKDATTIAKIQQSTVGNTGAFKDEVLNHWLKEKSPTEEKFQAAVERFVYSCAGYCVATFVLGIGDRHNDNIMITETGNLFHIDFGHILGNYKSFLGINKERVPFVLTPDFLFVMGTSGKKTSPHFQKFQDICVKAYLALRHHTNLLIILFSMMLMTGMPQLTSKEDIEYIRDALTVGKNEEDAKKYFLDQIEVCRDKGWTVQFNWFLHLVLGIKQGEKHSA
SMILES,"kinase still bound, per cent of control (ERBB3 (human)) [%]","kinase still bound, per cent of control [1] [%]","kinase still bound, per cent of control (PIK3CG (human)) [%]","kinase still bound, per cent of control (ERN1 (human)) [%]","kinase still bound, per cent of control (GRK7 (human)) [%]","kinase still bound, per cent of control (SGK3 (human)) [%]","kinase still bound, per cent of control (EIF2AK1 (human)) [%]","kinase still bound, per cent of control (PI4KB (human)) [%]","kinase still bound, per cent of control (MAST1 (human)) [%]","kinase still bound, per cent of control (CSNK1A1 (human)) [%]","kinase still bound, per cent of control (MAP2K7 (human)) [%]","kinase still bound, per cent of control (HIPK4 (human)) [%]","kinase still bound, per cent of control (RPS6KB1 (human)) [%]","kinase still bound, per cent of control (CRK2 (P.falciparum)) [%]","kinase still bound, per cent of control (OXSR1 (human)) [%]","kinase still bound, per cent of control (TBK1 (human)) [%]","kinase still bound, per cent of control (MAP3K15 (human)) [%]","kinase still bound, per cent of control (EPHB6 (human)) [%]","kinase still bound, per cent of control (MAP3K13 (human)) [%]","kinase still bound, per cent of control (DYRK2 (human)) [%]",also measured
CCOc1cc2ncc(C#N)c(Nc3ccc(OCc4ccccn4)c(Cl)c3)c2cc1NC(=O)/C=C/CN(C)C,0.1,100,91,80,100,100,100,100,100,100,49,42,100,100,54,100,100,83,86,64,"kinase still bound, per cent of control (BRAF (human)): 95%; kinase still bound, per cent of control (NEK11 (human)): 64%; kinase still bound, per cent of control (MTOR (human)): 100%; kinase still bound, per cent of control (MATK (human)): 71%; kinase still bound, per cent of control (SBK1 (human)): 100%; kinase still bound, per cent of control (KIT (human)): 80%; kinase still bound, per cent of control (CDKL1 (human)): 100%; kinase still bound, per cent of control (ROCK1 (human)): 100%; kinase still bound, per cent of control (LRRK2 (human)): 99%; kinase still bound, per cent of control (NEK3 (human)): 41%"
C=CC(=O)Nc1cc(NC(=O)c2ccc(C)c(NC(=O)c3ccno3)c2)cc(C(F)(F)F)c1,100,86,76,90,100,100,100,88,100,100,100,100,87,98,100,100,77,81,98,78,"kinase still bound, per cent of control (CDK2 (human)): 100%; kinase still bound, per cent of control (MAP3K2 (human)): 100%; kinase still bound, per cent of control [2]: 93%; kinase still bound, per cent of control (HIPK3 (human)): 100%; kinase still bound, per cent of control [3]: 95%; kinase still bound, per cent of control [4]: 79%; kinase still bound, per cent of control [5]: 81%; kinase still bound, per cent of control [6]: 77%; kinase still bound, per cent of control (NEK11 (human)): 100%; kinase still bound, per cent of control (MTOR (human)): 97%; kinase still bound, per cent of control (MATK (human)): 100%; kinase still bound, per cent of control (SBK1 (human)): 100%; kinase still bound, per cent of control (KIT (human)): 4.7%; kinase still bound, per cent of control (CDKL1 (human)): 100%; kinase still bound, per cent of control (ROCK1 (human)): 100%; kinase still bound, per cent of control (LRRK2 (human)): 89%; kinase still bound, per cent of control (NEK3 (human)): 88%; kinase still bound, per cent of control [7]: 100%; kinase still bound, per cent of control (TIE1 (human)): 100%"
CN(C)C/C=C/C(=O)Nc1cccc(Nc2ncc3c(n2)N(C)c2ccccc2C(=O)N3C)c1,89,0.1,0,69,100,90,100,87,100,26,97,76,63,100,25,58,69,4.3,40,47,"kinase still bound, per cent of control (CDK2 (human)): 94%; kinase still bound, per cent of control (MAP3K2 (human)): 0.1%; kinase still bound, per cent of control [2]: 55%; kinase still bound, per cent of control (HIPK3 (human)): 85%; kinase still bound, per cent of control [3]: 100%; kinase still bound, per cent of control [4]: 100%; kinase still bound, per cent of control [5]: 90%; kinase still bound, per cent of control [6]: 65%; kinase still bound, per cent of control (NEK11 (human)): 77%; kinase still bound, per cent of control (MTOR (human)): 74%; kinase still bound, per cent of control (MATK (human)): 69%; kinase still bound, per cent of control (SBK1 (human)): 7.6%; kinase still bound, per cent of control (KIT (human)): 66%; kinase still bound, per cent of control (CDKL1 (human)): 83%; kinase still bound, per cent of control (ROCK1 (human)): 49%; kinase still bound, per cent of control (LRRK2 (human)): 31%; kinase still bound, per cent of control (NEK3 (human)): 58%; kinase still bound, per cent of control [7]: 37%; kinase still bound, per cent of control (TIE1 (human)): 5.4%"
